For one assay, the target named is T1, PTK2 enzyme (Homo sapiens, UniProt Q05397).
T1 construct: purchased Invitrogen PV3832
As to the kind of experiment: PTK2 enzyme test, Assay 2 (DELFIA, poly-Glu-Tyr substrate, antibody PT66). The class given is biochemical. Particulars: Assay 2 (values marked *); 1 h pre-incubation, 0.5% DMSO. An excerpt:
This test uses active PTK2 enzyme (Invitrogen Code PV3832) and poly-Glu-Tyr (4:1, Sigma P-0275) as the kinase substrate. The kinase activity is detected by means of the phosphorylation of the substrate in a DELFIA™ assay. The phosphorylated substrate is detected with the europium-labelled phosphotyrosine antibody PT66 (Perkin Elmer, No.: AD0040).
In order to determine concentration-activity curves with PTK2-inhibitors the compounds are serially diluted first of all in 10% DMSO/H2O and then in kinase dilution buffer (20 mM TRIS/HCl pH 7.5, 0.1 mM EDTA, 0.1 mM EGTA, 0.286 mM sodium orthovanadate, 10% glycerol with the addition of freshly prepared BSA (fraction V, 1 mg/mL) and DTT (1 mM)) and 10 μL of each dilution are dispensed per well in a 96-well microtitre plate (clear U-shaped base plate, Greiner No. 650101) (the inhibitors are tested in duplicates) and mixed with 10 μL/well of PTK2 kinase (0.01 μg/well). PTK2 kinase is diluted accordingly beforehand with kinase dilution buffer. The diluted PTK2 inhibitor and the PTK2 kinase are pre-incubated for 1 h at RT and shaken at 500 revolutions per min. Then 10 μL/well poly-Glu-Tyr substrate (25 μg/well poly-Glu-Tyr, 0.05 μg/well biotinylated poly-Glu-Tyr dissolved in 250 mM TRIS/HCl pH 7.5, 9 mM DTT) are added. The reaction is started by the addition of 20 μL of ATP Mix (30 mM TRIS/HCl pH 7.5, 0.02% Brij, 0.2 mM sodium orthovanadate, 10 mM magnesium acetate, 0.1 mM EGTA, 1× phosphatase inhibitor cocktail 1 (Sigma, No.: P2850), 50 μM ATP (Sigma, No.: A3377; 15 mM stock solution))—the final concentration of DMSO is 0.5%. After 1 h kinase reaction (the plates are shaken at 500 rpm), the reaction is stopped by the addition of 12 μL/well of 100 mM EDTA, pH 8, and shaken for a further 5 min at RT (500 U/min). 55 μL of the reaction mixture are transferred into a streptavidin plate (Strepta Well High Bind (transparent, 96-well) made by Roche, No.: 11989685001) and incubated for 1 h at RT (shaking at 500 rpm). Then the microtitre plate is washed five times with 200 μL/well D-PBS (Invitrogen, No. 14190). 100 μL of a solution containing DELFIA Eu-N1 Anti-Phosphotyrosine PT66 antibody (Perkin Elmer, No.: AD0040, diluted 1:9000 in DELFIA test buffer (Perkin Elmer, No.: 1244-111)) is then added and it is incubated for 1 h at RT (shaking at 500 rpm). Then the plate is washed five times with 200 μL/well DELFIA washing buffer (Perkin Elmer, No.: 1244-114), 200 μL/well strengthening solution (Perkin Elmer, No.: 1244-105) is added and the whole is incubated for 10 min at RT (shaking at 300 rpm).
The time-delayed europium fluorescence is then measured in a microtitre plate reader (Victor, Perkin Elmer). The positive control consists of wells that contain solvent (0.5% DMSO in test buffer) and display uninhibited kinase activity. Wells that contain test buffer instead of enzyme act as a control for the background kinase activity.
The IC50 values are determined from concentration-activity analyses by iterative calculation using a sigmoid curve analysis algorithm (FIFTY, based on Graph PAD Prism Version 3.03) with a variable Hill coefficient.

The target in assay [1] is T2, Xenopus laevis Aurora B/INCENP complex (Xenopus laevis, UniProt Q6DE08).
T2 construct: equipped at the N-terminal position with a GST tag (amino acids 60-361); GST (N, cleaved yes); made in house; host or cells: E. coli BL21 (DE3)
T2 sequence (Q6DE08 60-361): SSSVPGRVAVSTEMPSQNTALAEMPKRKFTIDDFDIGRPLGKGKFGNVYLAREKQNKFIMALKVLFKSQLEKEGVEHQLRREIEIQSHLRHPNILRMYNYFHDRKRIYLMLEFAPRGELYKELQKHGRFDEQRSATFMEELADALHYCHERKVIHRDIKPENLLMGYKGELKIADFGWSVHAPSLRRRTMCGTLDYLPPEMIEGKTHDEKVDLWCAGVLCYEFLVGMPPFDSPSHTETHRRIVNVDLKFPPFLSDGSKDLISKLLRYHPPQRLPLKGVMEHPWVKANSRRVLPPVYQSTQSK
T2 sequence (O13024 790-847 partner): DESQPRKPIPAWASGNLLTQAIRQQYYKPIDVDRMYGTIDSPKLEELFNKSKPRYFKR
The assay is described as follows: Aurora-B kinase assay (radioactive enzyme inhibition). The class given is biochemical. An excerpt:
A radioactive enzyme inhibition assay was developed using E. coli-expressed recombinant Xenopus laevis Aurora B wild-type protein equipped at the N-terminal position with a GST tag (amino acids 60-361) in a complex with Xenopus laevis INCENP (amino acids 790-847), which is obtained from bacteria and purified. In equivalent manner a Xenopus laevis Aurora B mutant (G96V) in a complex with Xenopus laevis INCENP^790-847 may also be used.
The coding sequence for Aurora-B^60-361 from Xenopus laevis is cloned into a modified version of pGEX-6T (Amersham Biotech) via BamHI and SalI cutting sites. The vector contains two cloning cassettes which are separated by a ribosomal binding site, allowing bi-cistronic expression. In this configuration Xenopus laevis Aurora B is expressed by the first cassette, and the Xenopus laevis INCENP^790-847 is expressed by the second cassette. The resulting vector is pAUB-IN^847.
First of all the E. coli strain BL21 (DE3) is co-transformed with pUBS520 helper plasmid and pAUB-IN^847, after which protein expression is induced using 0.3 mM IPTG at an OD600 of 0.45-0.7. The expression is then continued for approx. 12-16 h at 23-25° C. with agitation.
The bacteria are then removed by centrifuging and the pellet is lysed in lysis buffer (50 mM Tris/Cl pH 7.6, 300 mM NaCl, 1 mM DTT, 1 mM EDTA, 5% glycerol, Roche Complete Protease Inhibitor tablets) using ultrasound, using 20-30 mL lysis buffer per litre of E. coli culture. The lysed material is freed from debris by centrifugation (12000 rpm, 45-60 min, JA20 rotor). The supernatant is incubated with […] of equilibrated GST Sepharose Fast Flow (Amersham Biosciences) per litre of E. coli culture for 4-5 h at 4° C. Then the column material is washed with 30 volumes of lysis buffer and then equilibrated with 30 volumes of cleavage buffer (50 mM Tris/Cl pH 7.6, 150 mM NaCl, 1 mM DTT, 1 mM EDTA). To cleave the GST tag from Aurora B, 10 units of Prescission Protease (Amersham Biosciences) are used per milligram of substrate and the mixture is incubated for 16 h at 4° C. The supernatant which contains the cleavage product is loaded onto a 6 mL Resource Q column (Amersham Biosciences) equilibrated with ion exchange buffer (50 mM Tris/Cl pH 7.6, 150 mM NaCl, 1 mM DTT, 1 mM EDTA). The Aurora B/INCENP complex is caught as it flows through, then concentrated and loaded onto a Superdex 200 size exclusion chromatography (SEC) column equilibrated with SEC buffer (10 mM Tris/Cl pH 7.6, 150 mM NaCl, 1 mM DTT, 1 mM EDTA). Fractions which contain the AuroraB/INCENP complex are collected and concentrated using Vivaspin concentrators (molecular weight exclusion 3000-5000 Da) to a final concentration of 12 mg/mL. Aliquots (e.g. 240 ng/μL) for kinase assays are transferred from this stock solution into freezing buffer (50 mM Tris/Cl pH 8.0, 150 mM NaCl, 0.1 mM EDTA, 0.03% Brij-35, 10% glycerol, 1 mM DTT) and stored at −80° C.
Test substances are placed in a polypropylene dish (96 wells, Greiner #655 201), in order to cover a concentration frame of 10 μM-0.0001 μM. The final concentration of DMSO in the assay is 5%. 30 μL of protein mix (50 mM Tris/Cl pH 7.5, 25 mM MgCl2, 25 mM NaCl, 167 μM ATP, 10 ng Xenopus laevis Aurora B/INCENP complex in freezing buffer) are pipetted into the 10 μl of test substance provided in 25% DMSO and this is incubated for 15 min at RT. Then 10 μL of peptide mix (100 mM Tris/Cl pH 7.5, 50 mM MgCl2, 50 mM NaCl, 5 μM NaF, 5 μM DTT, 1 μCi gamma-P33-ATP [Amersham], 50 μM substrate peptide [biotin-EPLERRLSLVPDS or multimers thereof, or biotin-EPLERRLSLVPKM or multimers thereof, or biotin-[…]]) are added. The reaction is incubated for 75 min (ambient temperature) and stopped by the addition of 180 μL of 6.4% trichloroacetic acid and incubated for 20 min on ice. […]

A value given as a limit tells only on which side of the number the result lay.

The term IC50 denotes the concentration that gives 50% inhibition.

T1 sequence (Q05397 whole entry): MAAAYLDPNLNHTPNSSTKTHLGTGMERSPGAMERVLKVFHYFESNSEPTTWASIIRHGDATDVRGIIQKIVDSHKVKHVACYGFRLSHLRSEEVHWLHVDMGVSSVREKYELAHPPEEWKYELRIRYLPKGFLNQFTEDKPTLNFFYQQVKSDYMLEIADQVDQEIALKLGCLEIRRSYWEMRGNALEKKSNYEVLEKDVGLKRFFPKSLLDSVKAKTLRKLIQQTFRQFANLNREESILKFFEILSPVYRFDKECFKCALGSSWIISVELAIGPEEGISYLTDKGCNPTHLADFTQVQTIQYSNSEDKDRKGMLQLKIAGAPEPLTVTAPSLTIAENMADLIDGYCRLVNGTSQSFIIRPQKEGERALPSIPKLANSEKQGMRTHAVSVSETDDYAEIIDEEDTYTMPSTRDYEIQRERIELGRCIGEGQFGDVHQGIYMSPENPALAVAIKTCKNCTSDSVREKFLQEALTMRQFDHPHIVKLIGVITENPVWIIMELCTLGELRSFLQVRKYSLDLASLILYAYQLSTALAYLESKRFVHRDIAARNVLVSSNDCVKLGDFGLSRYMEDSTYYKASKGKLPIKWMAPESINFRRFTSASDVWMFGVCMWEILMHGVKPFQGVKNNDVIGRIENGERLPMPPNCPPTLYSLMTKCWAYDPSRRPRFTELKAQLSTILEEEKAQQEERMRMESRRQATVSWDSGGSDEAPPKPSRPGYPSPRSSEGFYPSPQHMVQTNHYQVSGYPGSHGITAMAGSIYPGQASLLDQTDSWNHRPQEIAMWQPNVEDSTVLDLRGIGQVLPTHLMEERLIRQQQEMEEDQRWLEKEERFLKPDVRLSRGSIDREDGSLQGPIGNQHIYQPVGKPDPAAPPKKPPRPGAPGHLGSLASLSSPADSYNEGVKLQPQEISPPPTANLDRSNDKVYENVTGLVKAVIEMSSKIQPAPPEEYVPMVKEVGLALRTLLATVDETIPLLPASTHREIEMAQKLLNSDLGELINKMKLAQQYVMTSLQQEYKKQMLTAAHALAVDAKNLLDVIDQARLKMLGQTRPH

`COc1cc(C(=O)NC2CCOCC2)c(C)cc1Nc1ncc(C(F)(F)F)c(N[C@@H]2CCC[C@H]2NS(C)(=O)=O)n1` [Example I-195]: the IC50 on PTK2 enzyme was 0.32 nM; in assay [1], 641 nM.

Consider `C#CCNC(=O)c1cc(OC)c(Nc2ncc(C(F)(F)F)c(N[C@@H]3CCC[C@H]3NS(C)(=O)=O)n2)cc1C` [Example I-138], for which the results for the IC50 (at PTK2 enzyme; in assay [1]) were 0.41 nM and 422 nM, respectively.

Consider `COc1cc(C(=O)NC2CCN(C)CC2)c(Cl)cc1Nc1ncc(C(F)(F)F)c(N[C@@H]2CCC[C@H]2N(C)S(C)(=O)=O)n1` [Example I-131], for which the results for the IC50 (on PTK2 enzyme; in assay [1]) were 0.29 nM and 1010 nM, respectively.

As for `CNC(=O)c1cc(OC)c(Nc2ncc(C(F)(F)F)c(N[C@@H]3CCCC[C@H]3NS(C)(=O)=O)n2)cc1C` [Example I-152], the IC50 at PTK2 enzyme was found to be 0.41 nM; in assay [1], 1590 nM.

In the case of `COCCN1CCC(NC(=O)c2cc(OC)c(Nc3ncc(Cl)c(N[C@@H]4CCC[C@H]4N(C)S(C)(=O)=O)n3)cc2Cl)CC1` [Example I-166], the values for the IC50 (at PTK2 enzyme; in assay [1]) were 0.49 nM and 1140 nM, respectively.

Regarding `CNC(=O)c1cc(OC)c(Nc2ncc(C(F)(F)F)c(N[C@@H]3CCCC[C@H]3NS(C)(=O)=O)n2)cc1Cl` [Example I-137], the IC50 amounted to 0.44 nM on PTK2 enzyme and 1070 nM in assay [1].

Consider `COc1cc(N2CCN(C(C)(C)C)CC2)c(C)cc1Nc1ncc(C(F)(F)F)c(N[C@@H]2CCCC[C@H]2N(C)S(C)(=O)=O)n1` [Example I-158], for which the results for the IC50 (against PTK2 enzyme; in assay [1]) were 1 nM and above 10000 nM, respectively.

As for `COc1cc(NC(=O)[C@H]2CCCN2C)ccc1Nc1ncc(C(F)(F)F)c(N[C@@H]2CCCC[C@H]2N(C)S(C)(=O)=O)n1` [Example I-146], the IC50 on PTK2 enzyme worked out at 0.58 nM; in assay [1], 413 nM.

Regarding `COc1cc(C(=O)NC2CCN(C)CC2)c(F)cc1Nc1ncc(Br)c(N[C@@H]2CCC[C@H]2N(C)S(C)(=O)=O)n1` [Example I-142], the 50% inhibitory concentration (IC50) was determined as 0.5 nM on PTK2 enzyme and 311 nM in assay [1].

On to `COc1cc(N2CCN(C(C)(C)C)CC2)c(C)cc1Nc1ncc(C(F)(F)F)c(N[C@@H]2CCC[C@H]2N(C)S(C)(=O)=O)n1` [Example I-140], for which the figures for the IC50 (at PTK2 enzyme; in assay [1]) were 0.86 nM and above 5000 nM, respectively.

For the compound `COc1cc(N2CCNCC2)c(Cl)cc1Nc1ncc(C(F)(F)F)c(N[C@@H]2CCC[C@H]2N(C)S(C)(=O)=O)n1` [Example I-134], the values for the IC50 (against PTK2 enzyme; in assay [1]) were 0.5 nM and 778 nM, respectively.

The values are drawn from patent US20110071158A1, “NEW COMPOUNDS” (BOEHRINGER INGELHEIM INTERNATIONAL GMBH, priority 2009, published 2011).
